Assays:
Type in all cases: functional, Artery
Details in all cases: route oral
[1] = test system: Rattus norvegicus; assay: Maximum fall in systolic blood pressure at interval of 1 hour over a period of 1-6 hour after dose of 3.0 mg/kg (p.o.) in spontaneous hypertensive rat (SHR)
[2] = test system: Rattus norvegicus; assay: Maximum fall in systolic blood pressure at interval of 1 hour over a period of 1-6 hour after dose of 0.3 mg/kg (p.o.) in spontaneous hypertensive rat (SHR); set-up: unit not given here
[3] = test system: Rattus norvegicus; assay: Maximum fall in systolic blood pressure at interval of 1 hour over a period of 1-6 hour after dose of 1.0 mg/kg (p.o.) in spontaneous hypertensive rat (SHR); set-up: unit not given here
[4] = test system: Rattus norvegicus; assay: Maximum fall in systolic blood pressure at interval of 1 hour over a period of 1-6 hour after dose of 0.1 mg/kg (p.o.) in spontaneous hypertensive rat (SHR)
[5] = test system: Rattus norvegicus; assay: Maximum fall in systolic blood pressure at interval of 1 hour over a period of 1-6 hour after dose of 10 mg/kg (p.o.) in spontaneous hypertensive rat (SHR)
[6] = test system: Rattus norvegicus; assay: Maximum fall in systolic blood pressure at interval of 1 hour over a period of 1-6 hour after dose 1.0 mg/kg (p.o.) in spontaneous hypertensive rat (SHR)

Row | Compound | Max fall in blood pressure [2] | Max fall in blood pressure [3] | further results
1 | C/N=C(/NC(N)=O)NC1c2cc(C#N)ccc2OC(C)(C)C1O (single isomer, unassigned) | – | – | Max fall in blood pressure [1]: 19
2 | CC1(C)Oc2ccc(C#N)cc2C(N2CCCC2=O)[C@H]1O (stereo not given in full) [CROMAKALIM] | 39 | 47 | Max fall in blood pressure [4]: 13
3 | CN/C(=N/C1=CC(C)(C)Oc2ccc(C#N)cc21)NC#N | – | 17 | Max fall in blood pressure [1]: 15
4 | CN/C(=C\[N+](=O)[O-])NC1c2cc(C#N)ccc2OC(C)(C)C1O (single isomer, unassigned) | – | 7 | Max fall in blood pressure [5]: 12
5 | C/N=C(/NC#N)NC1c2cc(C#N)ccc2OC(C)(C)C1O (single isomer, unassigned) | 16 | 41 | –
6 | CC1(C)Oc2ccc(C#N)cc2C(/N=C(/N)NC#N)C1O (single isomer, unassigned) | 24 | 48 | –
7 | CC(C)(C)/N=C(/NC#N)NC1c2cc(C#N)ccc2OC(C)(C)C1O (single isomer, unassigned) | – | – | Max fall in blood pressure [5]: 10; Max fall in blood pressure [6]: 8
8 | C/N=C(/NC(C)=O)NC1c2cc(C#N)ccc2OC(C)(C)C1O (single isomer, unassigned) | – | 17 | –
9 | CNC(=O)NC1c2cc(C#N)ccc2OC(C)(C)C1O (single isomer, unassigned) | 31 | 61 | Max fall in blood pressure [4]: 14
10 | C/N=C(\NC1c2cc(C#N)ccc2OC(C)(C)[C@H]1O)NS(N)(=O)=O (stereo not given in full) | – | – | Max fall in blood pressure [1]: 14
11 | C/N=C(/NC#N)NC1c2cnccc2OC(C)(C)[C@H]1O (stereo not given in full) | – | 25 | –
